Data on 29 molecules can be found in patent US20230406843A1, “Progranulin Modulators and Methods of Using the Same” (ARKUDA THERAPEUTICS, priority 2020, published 2023).

Counter-ions that a name gives are not always drawn.

One assay has as its system progranulin. Put plainly: Progranulin induction cellular assay (ELISA of secreted mouse PGRN). The assay is classed as cell-based. The note with it: Mus musculus, BV-2, read-out: EC50 μM. An outline of the steps: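 Secreted mouse PGRN in culture medium is measured by ELISA. Cells tested are BV-2, primary cortical neurons and primary microglia. BV-2 cells are plated a day ahead, allowed 1 h to attach, then incubated 16 h.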
(In general: In an ELISA, binding on a coated surface is turned into a signal by an enzyme label.)
The term EC50 denotes the concentration giving half of the maximal effect. With `CC(=O)N[C@H]1CO[C@@H](C(=O)N2CCc3ccccc3[C@@H]2c2ccc(F)cc2)C[C@@H]1N` [Compound 5512, N-((3R,4S,6R)-4-amino-6-((S)-1-(4-fluorophenyl)-1,2,3,4-tetrahydroisoquinoline-2-carbonyl)tetrahydro-2H-pyran-3-yl)acetamide], the EC50 worked out at 0.005 µM.

The assay is the same for the next values; noted with them: progranulin induction assay; mouse pMG, primary cortical neurons and BV-2 cell lines named, cell type not given; ELISA-based readout; read-out: EC50.
For `CCCO[C@H]1CO[C@@H](C(=O)N2CCc3ccccc3[C@@H]2c2ccc(F)cc2)C[C@@H]1N` [Compound 5502, ((2R,4S,5R)-4-amino-5-propoxytetrahydro-2H-pyran-2-yl)((S)-1-(4-fluorophenyl)-3,4-dihydroisoquinolin-2(1H)-yl)methanone], the EC50 is 0.001 µM.

With `CN[C@H]1C[C@H](C(=O)N2CCc3ccccc3[C@@H]2c2ccc(F)cc2)OC[C@@H]1OC` [Compound 5503, ((S)-1-(4-fluorophenyl)-3,4-dihydroisoquinolin-2(1H)-yl)((2R,4S,5R)-5-methoxy-4-(methylamino)tetrahydro-2H-pyran-2-yl)methanone], the EC50 was found to be 0.005 µM.

`CCN[C@H]1C[C@H](C(=O)N2CCc3ccccc3[C@@H]2c2ccc(F)cc2)OC[C@@H]1OC` [Compound 5504, ((2R,4S,5R)-4-(ethylamino)-5-methoxytetrahydro-2H-pyran-2-yl)((S)-1-(4-fluorophenyl)-3,4-dihydroisoquinolin-2(1H)-yl)methanone]: the EC50 was 0.009 µM.

For the molecule `C[C@@]1(C(=O)N2CCc3ccccc3[C@@H]2c2ccc(F)cc2)OCCNC[C@H]1O` [Compound 5505], the EC50 worked out at 0.41 µM.

For the molecule `C[C@]1(C(=O)N2CCc3ccccc3[C@@H]2c2ccc(F)cc2)OCCNC[C@@H]1O` [Compound 5506], the EC50 was 0.398 µM.

Consider `N[C@H]1C[C@H](C(=O)N2CCc3ccccc3[C@@H]2c2ccc(F)cc2)OC[C@@H]1OC(F)(F)F` [Compound 5507, ((2R,4S,5R)-4-amino-5-(trifluoromethoxy)tetrahydro-2H-pyran-2-yl)((S)-1-(4-fluorophenyl)-3,4-dihydroisoquinolin-2(1H)-yl)methanone], for which the EC50 amounted to 0.001 µM.

With `CCN[C@H]1C[C@H](C(=O)N2CCc3ccccc3[C@@H]2c2ccc(F)cc2)OC[C@H]1O` [Compound 5508, ((2R,4S,5S)-4-(ethylamino)-5-hydroxytetrahydro-2H-pyran-2-yl)((S)-1-(4-fluorophenyl)-3,4-dihydroisoquinolin-2(1H)-yl)methanone], the EC50 came to 0.03 µM.

Take `CCO[C@H]1CO[C@@H](C(=O)N2CCc3ccccc3[C@@H]2c2ccc(F)cc2)C[C@@H]1NC` [Compound 5509, ((2R,4S,5R)-5-ethoxy-4-(methylamino)tetrahydro-2H-pyran-2-yl)((S)-1-(4-fluorophenyl)-3,4-dihydroisoquinolin-2(1H)-yl)methanone]: the EC50 was found to be 0.001 µM.

`CCN[C@H]1C[C@H](C(=O)N2CCc3ccccc3[C@@H]2c2ccc(F)cc2)OC[C@@H]1OCC` [Compound 5510, ((2R,4S,5R)-5-ethoxy-4-(ethylamino)tetrahydro-2H-pyran-2-yl)((S)-1-(4-fluorophenyl)-3,4-dihydroisoquinolin-2(1H)-yl)methanone]: the EC50 came out at 0.002 µM.

Consider `CC(C)(C)O[C@H]1CO[C@@H](C(=O)N2CCc3ccccc3[C@@H]2c2ccc(F)cc2)C[C@@H]1N` [Compound 5511, ((2R,4S,5R)-4-amino-5-(tert-butoxy)tetrahydro-2H-pyran-2-yl)((S)-1-(4-fluorophenyl)-3,4-dihydroisoquinolin-2(1H)-yl)methanone], for which the EC50 came to 0.0002 µM.

On to `CCC(=O)N[C@H]1CO[C@@H](C(=O)N2CCc3ccccc3[C@@H]2c2ccc(F)cc2)C[C@@H]1N` [Compound 5513, N-((3R,4S,6R)-4-amino-6-((S)-1-(4-fluorophenyl)-1,2,3,4-tetrahydroisoquinoline-2-carbonyl)tetrahydro-2H-pyran-3-yl)propionamide], for which the EC50 is 0.03 µM.

Turning to `N[C@H]1C[C@H](C(=O)N2CCc3ccccc3[C@@H]2c2ccc(F)cc2)OC[C@@H]1NC(=O)C(F)(F)F` [Compound 5514, N-((3R,4S,6R)-4-amino-6-((S)-1-(4-fluorophenyl)-1,2,3,4-tetrahydroisoquinoline-2-carbonyl)tetrahydro-2H-pyran-3-yl)-2,2,2-trifluoroacetamide], the EC50 was 0.024 µM.

Regarding `CC(=O)N(C)[C@H]1CO[C@@H](C(=O)N2CCc3ccccc3[C@@H]2c2ccc(F)cc2)C[C@@H]1N` [Compound 5516, N-((3R,4S,6R)-4-amino-6-((S)-1-(4-fluorophenyl)-1,2,3,4-tetrahydroisoquinoline-2-carbonyl)tetrahydro-2H-pyran-3-yl)-N-methylacetamide], the EC50 was determined as 0.007 µM.

As to `CCC(=O)N(C)[C@H]1CO[C@@H](C(=O)N2CCc3ccccc3[C@@H]2c2ccc(F)cc2)C[C@@H]1N` [Compound 5517, N-((3R,4S,6R)-4-amino-6-((S)-1-(4-fluorophenyl)-1,2,3,4-tetrahydroisoquinoline-2-carbonyl)tetrahydro-2H-pyran-3-yl)-N-methylpropionamide], the EC50 amounted to 0.012 µM.

As for `C[C@H]1CO[C@@H](C(=O)N2CCc3ccccc3[C@@H]2c2ccc(F)cc2)C[C@@H]1N` [Compound 5518, ((2R,4S,5R)-4-amino-5-methyltetrahydro-2H-pyran-2-yl)((S)-1-(4-fluorophenyl)-3,4-dihydroisoquinolin-2(1H)-yl)methanone], the EC50 is 0.015 µM.

Turning to `C[C@@H]1CO[C@@H](C(=O)N2CCc3ccccc3[C@@H]2c2ccc(F)cc2)C[C@@H]1N` [Compound 5519, ((2R,4S,5S)-4-amino-5-methyltetrahydro-2H-pyran-2-yl)((S)-1-(4-fluorophenyl)-3,4-dihydroisoquinolin-2(1H)-yl)methanone], the EC50 was 0.041 µM.

Regarding `CS[C@H]1CO[C@@H](C(=O)N2CCc3ccccc3[C@@H]2c2ccc(F)cc2)C[C@@H]1N` [Compound 5520, ((2R,4S,5R)-4-amino-5-(methylthio)tetrahydro-2H-pyran-2-yl)((S)-1-(4-fluorophenyl)-3,4-dihydroisoquinolin-2(1H)-yl)methanone], the EC50 worked out at 0.004 µM.

As to `CCS[C@H]1CO[C@@H](C(=O)N2CCc3ccccc3[C@@H]2c2ccc(F)cc2)C[C@@H]1N` [Compound 5521, ((2R,4S,5R)-4-amino-5-(ethylthio)tetrahydro-2H-pyran-2-yl)((S)-1-(4-fluorophenyl)-3,4-dihydroisoquinolin-2(1H)-yl)methanone], the EC50 came out at 0.008 µM.

With `CS(=O)(=O)[C@H]1CO[C@@H](C(=O)N2CCc3ccccc3[C@@H]2c2ccc(F)cc2)C[C@@H]1N` [Compound 5523, ((2R,4S,5R)-4-amino-5-(methylsulfonyl)tetrahydro-2H-pyran-2-yl)((S)-1-(4-fluorophenyl)-3,4-dihydroisoquinolin-2(1H)-yl)methanone], the EC50 stood at 0.016 µM.

As for `CCS(=O)(=O)[C@H]1CO[C@@H](C(=O)N2CCc3ccccc3[C@@H]2c2ccc(F)cc2)C[C@@H]1N` [Compound 5524, ((2R,4S,5R)-4-amino-5-(ethylsulfonyl)tetrahydro-2H-pyran-2-yl)((S)-1-(4-fluorophenyl)-3,4-dihydroisoquinolin-2(1H)-yl)methanone], the EC50 came out at 0.016 µM.

In the case of `N[C@H]1C[C@H](C(=O)N2CCc3ccccc3[C@@H]2c2ccc(F)cc2)OC[C@@H]1OC1CCC1` [Compound 5525, ((2R,4S,5R)-4-amino-5-cyclobutoxytetrahydro-2H-pyran-2-yl)((S)-1-(4-fluorophenyl)-3,4-dihydroisoquinolin-2(1H)-yl)methanone], the EC50 stood at 0.0003 µM.

On to `CC[C@H]1CO[C@@H](C(=O)N2CCc3ccccc3[C@@H]2c2ccc(F)cc2)C[C@@H]1N` [Compound 5526, ((2R,4S,5R)-4-amino-5-ethyltetrahydro-2H-pyran-2-yl)((S)-1-(4-fluorophenyl)-3,4-dihydroisoquinolin-2(1H)-yl)methanone], for which the EC50 turned out to be 0.006 µM.

`N[C@H]1C[C@H](C(=O)N2CCc3ccccc3[C@@H]2c2ccc(F)cc2)OC[C@@H]1Oc1ccccc1` [Compound 5527, ((2R,4S,5R)-4-amino-5-phenoxytetrahydro-2H-pyran-2-yl)((S)-1-(4-fluorophenyl)-3,4-dihydroisoquinolin-2(1H)-yl)methanone]: the EC50 was 0.274 µM.

Regarding `CN1C=N[C@H]2C[C@H](C(=O)N3CCc4ccccc4[C@@H]3c3ccc(F)cc3)OC[C@H]21` [Compound 5528, ((S)-1-(4-fluorophenyl)-3,4-dihydroisoquinolin-2(1H)-yl)((3aS,6R,7aS)-3-methyl-3,3a,4,6,7,7a-hexahydropyrano[3,4-d]imidazol-6-yl)methanone hydrochloride], the EC50 was 0.168 µM.

For `Cn1cnc2c1CO[C@@H](C(=O)N1CCc3ccccc3[C@@H]1c1ccc(F)cc1)C2` [Compound 5529, ((S)-1-(4-fluorophenyl)-3,4-dihydroisoquinolin-2(1H)-yl)((R)-3-methyl-3,4,6,7-tetrahydropyrano[3,4-d]imidazol-6-yl)methanone], the EC50 amounted to 1.56 µM.

Consider `N[C@H]1C[C@H](C(=O)N2CCc3ccccc3[C@@H]2c2ccc(F)cc2)OC[C@@H]1OC1CC1` [Compound 5530, ((2R,4S,5R)-4-amino-5-cyclopropoxytetrahydro-2H-pyran-2-yl)((S)-1-(4-fluorophenyl)-3,4-dihydroisoquinolin-2(1H)-yl)methanone], for which the EC50 was determined as 0.0003 µM.

With `N[C@H]1C[C@H](C(=O)N2CCc3ccccc3[C@@H]2c2ccc(F)cc2)OC[C@@H]1OCc1ccccc1` [Compound 5531, ((2R,4S,5R)-4-amino-5-(benzyloxy)tetrahydro-2H-pyran-2-yl)((S)-1-(4-fluorophenyl)-3,4-dihydroisoquinolin-2(1H)-yl)methanone], the EC50 was 0.088 µM.

Regarding `O=C1CN[C@H]2C[C@H](C(=O)N3CCc4ccccc4[C@@H]3c3ccc(F)cc3)OC[C@@H]2N1` [Compound 5532, (4aR,7R,8aS)-7-((S)-1-(4-fluorophenyl)-1,2,3,4-tetrahydroisoquinoline-2-carbonyl)hexahydro-2H-pyrano[3,4-b]pyrazin-3(4H)-one], the concentration for a half-maximal effect (EC50) was 1.68 µM.
